Experiments:
Assay in all cases: drug sensitivity score (DSS3, normalised partial AUC of % inhibition dose-response) (DSS (score)); higher = more sensitive (stronger inhibition of viability); extreme values may be limits of the assay
[1] = tested on: FMOC02_1 (patient-derived low-grade serous ovarian cancer cells); details: 72 h; library: FO5A; assay format: 2D, 384-well, CellTiter-Glo
Method in brief: (§1)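 On 384-well flat clear-bottom plates carrying compounds at five concentrations across a 10,000-fold range, patient-derived ovarian cancer cells below passage 10 were incubated for 72 h at 37 °C with 5% CO2. CellTiter-Glo readout of viability was processed in Breeze. A higher drug sensitivity score, defined as the partial area under the percent-inhibition dose-response curve divided by the log of the upper asymptote, means greater sensitivity.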

[2] = tested on: FMOC02_2 (patient-derived low-grade serous ovarian cancer cells); details: 72 h; library: FO5A; assay format: 2D, 384-well, CellTiter-Glo
Method in brief: as §1

[3] = tested on: FMOC02_3 (patient-derived low-grade serous ovarian cancer cells); details: 72 h; library: FO5A; assay format: 2D, 384-well, CellTiter-Glo
Method in brief: as §1

[4] = tested on: FMOC03 (patient-derived mucinous ovarian cancer cells); details: 72 h; library: FO5A; assay format: 2D, 384-well, CellTiter-Glo
Method in brief: as §1

[5] = tested on: FMOC04 (patient-derived high-grade serous ovarian cancer cells); details: 72 h; library: FO5A; assay format: 2D, 384-well, CellTiter-Glo
Method in brief: as §1

[6] = tested on: FMOC06 (patient-derived mucinous ovarian cancer cells); details: 72 h; library: FO5A; assay format: 2D, 384-well, CellTiter-Glo
Method in brief: as §1

[7] = tested on: FMOC09 (patient-derived high-grade serous ovarian cancer cells); details: 72 h; library: FO5A; assay format: 2D, 384-well, CellTiter-Glo
Method in brief: as §1

[8] = tested on: FMOC11 (patient-derived high-grade serous ovarian cancer cells); details: 72 h; library: FO5A; assay format: 2D, 384-well, CellTiter-Glo
Method in brief: as §1

[9] = tested on: FMOC14 (patient-derived high-grade serous ovarian cancer cells); details: 72 h; library: FO5A; assay format: 2D, 384-well, CellTiter-Glo
Method in brief: as §1

[10] = tested on: FMOC17 (patient-derived low-grade serous ovarian cancer cells); details: 72 h; library: FO5A; assay format: 2D, 384-well, CellTiter-Glo
Method in brief: as §1

[11] = tested on: FMOC22 (patient-derived mucinous ovarian cancer cells); details: 72 h; library: FO5A; assay format: 2D, 384-well, CellTiter-Glo
Method in brief: as §1

[12] = tested on: FMOC24 (patient-derived high-grade serous ovarian cancer cells); details: 72 h; library: FO5A; assay format: 2D, 384-well, CellTiter-Glo
Method in brief: as §1

[13] = tested on: FMOC25_1 (patient-derived low-grade serous ovarian cancer cells); details: 72 h; library: FO4B; assay format: 2D, 384-well, CellTiter-Glo
Method in brief: as §1

[14] = tested on: FMOC25_2 (patient-derived low-grade serous ovarian cancer cells); details: 72 h; library: FO5A; assay format: 2D, 384-well, CellTiter-Glo
Method in brief: as §1

[15] = tested on: FMOC27 (patient-derived low-grade serous ovarian cancer cells); details: 72 h; library: FO5A; assay format: 2D, 384-well, CellTiter-Glo
Method in brief: as §1

[16] = tested on: FMOC28 (patient-derived low-grade serous ovarian cancer cells); details: 72 h; library: FO5A; assay format: 2D, 384-well, CellTiter-Glo
Method in brief: as §1

Compound | drug sensitivity score [1] | drug sensitivity score [2] | drug sensitivity score [3] | drug sensitivity score [4] | drug sensitivity score [5] | drug sensitivity score [6] | drug sensitivity score [7] | drug sensitivity score [8] | drug sensitivity score [9] | drug sensitivity score [10] | drug sensitivity score [11] | drug sensitivity score [12] | drug sensitivity score [13] | drug sensitivity score [14] | drug sensitivity score [15] | drug sensitivity score [16]
COc1ccc(Cn2ccc3ccc(C(=O)NO)cc32)cc1 | 1 | 3.4 | 1.8 | 1.1 | 0 | 0.2 | 1.1 | 0.6 | 1.1 | 1.4 | 0.4 | 0.4 | 0.8 | 2.5 | 0.2 | 4.9
C[C@H]1Oc2cc(cnc2N)-c2c(nn(C)c2C#N)CN(C)C(=O)c2ccc(F)cc21 | 0.8 | 3.2 | 3.1 | 0 | 0 | 3.4 | 1.6 | 0 | 0 | 0 | 0 | 1.6 | 0 | 1.6 | 0 | 0
Cc1ccc(C(=O)N(CCCN)[C@@H](c2oc3cc(Cl)ccc3c(=O)c2Cc2ccccc2)C(C)C)cc1 | 3.3 | 2.4 | 2.5 | 1.8 | 2.4 | 1.1 | 2.4 | 1.9 | 0 | 1.3 | 1.3 | 0 | 1.9 | 5.6 | 0 | 5
Cc1ncc(Cl)cc1NCc1ccc(C(=O)N[C@@H](CC2CCCC2)C(=O)NC2CC2)s1 | 0 | 0 | 7.1 | 0 | 0 | 0.2 | 0 | 0 | 0 | 0 | 0.1 | 2.05 | 0 | 0 | 1.5 | 0
N#Cc1ccc(COC[C@H]2O[C@@H](n3c(NCc4ccc(Cl)c(Cl)c4)nc4c(N)ncnc43)[C@H](O)[C@@H]2O)cc1 | 7.6 | 2.6 | 6.6 | 6 | 0.95 | 5.5 | 2 | 3.2 | 2.5 | 5.6 | 4.2 | 2.1 | 6.6 | 0 | 1.6 | 0
O=C(NC[C@H](O)CN1CCc2ccccc2C1)c1cc(NC2COC2)ncn1 | 0 | 0 | 1.3 | 0 | 0 | 0 | 0.3 | 0 | 0 | 0 | 1.8 | 0.5 | 1 | 0.2 | 1.1 | 0
O=C(O)c1ccc(CN2CCC(CN[C@@H]3C[C@H]3c3ccccc3)CC2)cc1 | 0.4 | 0 | 1.6 | 0 | 0.4 | 0 | 0 | 0 | 0 | 0 | 0 | 0.9 | 0 | 0 | 0 | 0
Cn1cc(C[C@@H](N)C(=O)O)c2ccccc21 [1-methyl-D-tryptophan] | 0 | 0 | 0 | 0 | 0 | 0 | 0.2 | 0 | 0 | 0 | 0 | 0 | 0 | 0 | 0 | 0.5
CC1CCC(n2c3cnccc3c3cnc(Nc4ccc5c(n4)CCN(C(=O)CO)C5)nc32)CC1 (stereo not drawn) [AMG-925] | 0 | 0 | 1.3 | 0 | 0 | 0 | 0 | 0 | 0 | 0 | 0.2 | 0 | 0.7 | 0.5 | 0.9 | 0
COCC1(CO)C(=O)C2CCN1CC2 (stereo not drawn) [APR-246] | 0 | 0 | 0 | 0 | 0 | 0 | 0 | 0 | 0 | 0 | 0 | 0.05 | 0 | 0 | 0 | 0
COc1cc(N2CCN(C)CC2)ccc1Nc1nccc(-c2cn(C)c3cnccc23)n1 [AZ191] | 4 | 3.8 | 2.9 | 0.5 | 0.2 | 1.9 | 2.2 | 1.4 | 0.4 | 1.7 | 0.7 | 6.15 | 0 | 1.5 | 1.6 | 2.3
COc1cc(OC2CCN(C)CC2)ccc1Nc1ncc2c(n1)n(C1CCCC1)c(=O)n2C [AZ 3146] | 5.2 | 5.2 | 9 | 0.7 | 1.3 | 2.9 | 1.1 | 1.3 | 0.9 | 4.7 | 0.8 | 6.25 | 3.7 | 6 | 4.4 | 2.3
N[C@@H]1CCCN(c2c(/C=C3\SC(=O)NC3=O)cccc2-c2ccccc2)C1 [AZD1208] | 1 | 0 | 5.9 | 0 | 0 | 4.7 | 3.2 | 0 | 0 | 0 | 0 | 0 | 0.5 | 2.4 | 0 | 0

From the supplement of paper PMC9938120
